Reference: ChEMBL document CHEMBL4725351, “Cyclic Derivative of Host-Defense Peptide IDR-1018 Improves Proteolytic Stability, Suppresses Inflammation, and Enhances In Vivo Activity” (J Med Chem, 2020)
Calls of active or inactive are those of the source. Where a SMILES comes first, the peptide text is derived from it. Bridges are numbered along the chain shown (N, C = ends).

Columns and labels:
Escherichia coli [1] = assay: Antibiofilm activity against Escherichia coli ATTC 489 incubated for 24 hrs under shaking condition by turbidometric method; type: functional
Staphylococcus aureus [2] = assay: Antibacterial activity against methicillin-resistant Staphylococcus aureus SAP0017 measured after overnight incubation by microtitre plate based spectrophotometric method; type: functional
[3] = Aggregation property of the compound in saline at 1 mg/ml by turbidimetric method; type: physicochemical; conditions: buffer
Staphylococcus aureus [4] = assay: Antibiofilm activity against methicillin-resistant Staphylococcus aureus SAP0017 incubated for 24 hrs under shaking condition by turbidometric method; type: functional
PBMC [5] = assay: Immunomodulatory activity in human PBMC assessed as reduction in LPS-induced IL1beta production at 25 ug/ml measured after overnight incubation by ELISA; type: functional, tissue-based; conditions: dose 25.0 µg/ml
Staphylococcus aureus [6] = assay: Antibacterial activity against methicillin-resistant Staphylococcus aureus USA300 LAC measured after overnight incubation by microtitre plate based spectrophotometric method; type: functional
[7] = Immunomodulatory activity in human PBMC assessed as increase in LPS-induced MCP1 production at 25 ug/ml measured after overnight incubation by ELISA; type: functional; conditions: dose 25 µg/ml
PBMC [8] = assay: Immunomodulatory activity in human PBMC assessed as change in TNFalpha production at 25 ug/ml measured after overnight incubation by ELISA; type: functional, tissue-based; conditions: dose 25.0 µg/ml
PBMC [9] = assay: Immunomodulatory activity in human PBMC assessed as increase in LPS-induced IL10 production at 25 ug/ml measured after overnight incubation by ELISA; type: functional; conditions: dose 25.0 µg/ml
[10] = Aggregation property of the compound in sodium citrate solution at 10 mM by turbidimetric method; type: physicochemical; conditions: 10000 µM
[11] = Aggregation property of the compound in sodium nitrate solution at 10 mM by turbidimetric method; type: physicochemical; conditions: 10000 µM
[12] = Aggregation property of the compound in sodium phosphate solution at 10 mM by turbidimetric method; type: physicochemical; conditions: 10000 µM
Klebsiella pneumoniae [13] = assay: Antibiofilm activity against Klebsiella pneumoniae ATTC 13883 incubated for 24 hrs under shaking condition by turbidometric method; type: functional
PBMC [14] = assay: Immunomodulatory activity in human PBMC assessed as reduction in LPS-induced TNFalpha production at 25 ug/ml measured after overnight incubation by ELISA; type: functional, tissue-based; conditions: dose 25.0 µg/ml
[15] = Aggregation property of the compound in 5% dextrose at 1 mg/ml by turbidimetric method; type: physicochemical
Pseudomonas aeruginosa [16] = assay: Antibiofilm activity against Pseudomonas aeruginosa PA14 incubated for 24 hrs under shaking condition by turbidometric method; type: functional
[17] = Aggregation property of the compound in water at 1 mg/ml by turbidimetric method; type: physicochemical; conditions: buffer
[18] = Aggregation of the compound in human PBMC assessed as amorphous morphology at 50 ug/ml measured after 4 hrs by microscopic analysis; type: ADME, tissue-based; conditions: dose 50 µg/ml
Staphylococcus aureus [19] = assay: Antibacterial activity against Staphylococcus aureus USA300 LAC infected in CD1 mouse assessed as reduction in bacterial load at 7.5 mg/kg, sc administered at infection site measured after 3 days by colony counting method relative to control; type: functional; conditions: time 3.0 day
[20] = Toxicity in CD1 mouse assessed as precipitation under the skin at 10 mg/kg, sc measured after 16 hrs; type: organism-based; conditions: in vivo
PBMC [21] = assay: Immunomodulatory activity in human PBMC assessed as increase in IL-1RA production at 25 ug/ml measured after overnight incubation by ELISA; type: functional, tissue-based; conditions: dose 25.0 µg/ml
Acinetobacter baumannii [22] = assay: Antibacterial activity against Acinetobacter baumannii 5015 measured after overnight incubation by microtitre plate based spectrophotometric method; type: functional
Acinetobacter baumannii [23] = assay: Antibacterial activity against Acinetobacter baumannii 17918 measured after overnight incubation by microtitre plate based spectrophotometric method; type: functional
Pseudomonas aeruginosa [24] = assay: Antibiofilm activity against Pseudomonas aeruginosa PAO1 incubated for 24 hrs under shaking condition by turbidometric method; type: functional
PBMC [25] = assay: Immunomodulatory activity in human PBMC assessed as increase in LPS-induced IL1RA production at 25 ug/ml measured after overnight incubation by ELISA; type: functional; conditions: dose 25.0 µg/ml
[26] = Aggregation property of the compound in RPMI medium with 1% FBS at 1 mg/ml by turbidimetric method; type: physicochemical
Pseudomonas aeruginosa [27] = assay: Antibacterial activity against Pseudomonas aeruginosa PAO1 measured after overnight incubation by microtitre plate based spectrophotometric method; type: functional
Acinetobacter baumannii [28] = assay: Antibiofilm activity against Acinetobacter baumannii 17918 incubated for 24 hrs under shaking condition by turbidometric method; type: functional
Trypsin [29] = biological target: T1, Trypsin (Homo sapiens, UniProt P07477+P07478+P35030); assay: Stability of the compound in pH 8.2 ammonium bicarbonate buffer assessed as trypsin (unknown origin)-mediated drug degradation at 20 ug/ml measured up to 120 mins by MALDI-TOF analysis; type: ADME, protein assay; conditions: pH 8.2, 2 h, at 20 µg/mL
Trypsin [30] = biological target: T1, Trypsin; assay: Stability of the compound in pH 8.2 ammonium bicarbonate buffer assessed as trypsin (unknown origin)-mediated drug degradation at 20 ug/ml measured up to 120 mins by RP-HPLC analysis; type: ADME, protein assay; conditions: pH 8.2, 2 h, at 20 µg/mL
Acinetobacter baumannii [31] = assay: Antibiofilm activity against Acinetobacter baumannii 5015 incubated for 24 hrs under shaking condition by turbidometric method; type: functional
Staphylococcus aureus [32] = assay: Antibiofilm activity against methicillin-resistant Staphylococcus aureus USA300 LAC incubated for 24 hrs under shaking condition by turbidometric method; type: functional
PBMC [33] = assay: Immunomodulatory activity in human PBMC assessed as increase in MCP1 production at 25 ug/ml measured after overnight incubation by ELISA; type: functional, tissue-based; conditions: dose 25.0 µg/ml
Escherichia coli [34] = assay: Antibacterial activity against Escherichia coli ATTC 489 measured after overnight incubation by microtitre plate based spectrophotometric method; type: functional
Pseudomonas aeruginosa [35] = assay: Antibacterial activity against Pseudomonas aeruginosa PA14 measured after overnight incubation by microtitre plate based spectrophotometric method; type: functional
[36] = Cytotoxicity against human PBMC assessed as reduction in cell viability at 100 ug/ml measured after 24 hrs by LDH assay; type: tissue-based; conditions: dose 100 µg/ml
Klebsiella pneumoniae [37] = assay: Antibacterial activity against Klebsiella pneumoniae ATTC 13883 measured after overnight incubation by microtitre plate based spectrophotometric method; type: functional
Staphylococcus aureus [38] = assay: Antibacterial activity against Staphylococcus aureus USA300 LAC infected in CD1 mouse assessed as reduction in dermonecrosis at 7.5 mg/kg, sc administered at infection site measured after 3 days by caliper method relative to control; type: functional; conditions: time 3.0 day

CC[C@H](C)[C@@H]1NC(=O)[C@H](CCCNC(=N)N)NC(=O)[C@H](C(C)C)NC(=O)[C@H](C)NC(=O)[C@H](C(C)C)NC(=O)[C@H]([C@@H](C)CC)NC(=O)[C@H](CC(C)C)NC(=O)[C@H](CCCNC(=N)N)NC(=O)[C@H](C(C)C)NC(=O)[C@@H](N)CSSC[C@@H](C(N)=O)NC(=O)[C@H](CCCNC(=N)N)NC(=O)[C@H](CCCNC(=N)N)NC(=O)[C@H](Cc2c[nH]c3ccccc23)NC1=O (H-CVRLIVAVRIWRRC-NH2; disulfide 1-14)
Not Active: Activity [3] | Activity [15] | Activity [17] | Activity [18]
57.4 µM: MBEC (Pseudomonas aeruginosa [16]) | MIC (Acinetobacter baumannii [22]) | MIC (Acinetobacter baumannii [23]) | MBEC (Pseudomonas aeruginosa [24]) | MIC (Pseudomonas aeruginosa [27]) | MBEC (Acinetobacter baumannii [28]) | MBEC (Acinetobacter baumannii [31]) | MIC (Pseudomonas aeruginosa [35])
28.7 µM: MIC (Staphylococcus aureus [2]) | MIC (Staphylococcus aureus [6]) | MBEC (Klebsiella pneumoniae [13]) | MIC (Escherichia coli [34]) | MIC (Klebsiella pneumoniae [37])
Stable: Stabilty (Trypsin [29]) | Stabilty (Trypsin [30])
Active: Activity [10] | Activity [11] | Activity [12] | Activity [26]
active: Activity (PBMC [5]) | Activity (PBMC [9]) | Activity (PBMC [14]) | Activity (PBMC [21]) | Activity (PBMC [25]) | Activity (PBMC [33])
18.3 µM: MBEC (Staphylococcus aureus [4]) | MBEC (Staphylococcus aureus [32])
Toxic: Activity [20] | Activity [36]
36.7 µM: MBEC (Escherichia coli [1])
inactive: Activity (PBMC [8]) | Activity (Staphylococcus aureus [19]) | Activity (Staphylococcus aureus [38])
35%: Activity [7]
